From the supplement of paper PMC9663587

Experiments:
[1] = compound: CCc1cnn2c(NCc3ccc[n+]([O-])c3)cc(N3CCCC[C@H]3CCO)nc12; assay: GR value, 72 h; higher = faster growth (1 = untreated, <0 = killing);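 further: breast cancer and non-malignant breast epithelial lines, nine half-log doses, viable cells counted by Hoechst and LIVE/DEAD dye imaging versus time-zero plates and DMSO controls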
YKL-5-124 = compound: C=CC(=O)Nc1ccc(C(=O)Nc2[nH]nc3c2CN(C(=O)N[C@H](CN(C)C)c2ccccc2)C3(C)C)cc1 [YKL-5-124]; assay: as above
THZ531 = compound: CN(C)C/C=C/C(=O)Nc1ccc(C(=O)N2CCC[C@@H](Nc3ncc(Cl)c(-c4c[nH]c5ccccc45)n3)C2)cc1 [THZ531]; assay: as above
[2] = compound: CCN1CCN(Cc2ccc(Nc3ncc(F)c(-c4cc(F)c5nc(C)n(C(C)C)c5c4)n3)nc2)CC1; assay: as above
Flavopiridol = compound: CN1CC[C@H](c2c(O)cc(O)c3c(=O)cc(-c4ccccc4Cl)oc23)[C@H](O)C1 [Flavopiridol]; assay: increase in dead-cell fraction, 72 h; higher = more death;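 further: breast cancer cell lines in 384-well plates, stained with Hoechst plus LIVE/DEAD far red dye and imaged, cells above an LDR intensity threshold counted dead, Hoechst-negative corpses included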
[3] = compound: CCN1CCN(Cc2ccc(Nc3ncc(F)c(-c4cc(F)c5nc(C)n(C(C)C)c5c4)n3)nc2)CC1; assay: as above

## AU565
[1]; 0.0001 µM
  GR value: 0.954 GR
[1]; 0.0003162 µM
  GR value: 0.978 GR
[1]; 0.001 µM
  GR value: 0.974 GR
[1]; 0.003162 µM
  GR value: 0.928 GR
[1]; 0.01 µM
  GR value: 0.19 GR
[1]; 0.03162 µM
  GR value: -0.568 GR
[1]; 0.1 µM
  GR value: -0.734 GR
[1]; 0.3162 µM
  GR value: -0.746 GR
[1]; 1 µM
  GR value: -0.767 GR
YKL-5-124; 0.001 µM
  GR value: 0.305 GR
YKL-5-124; 0.003162 µM
  GR value: 0.28 GR
YKL-5-124; 0.01 µM
  GR value: 0.128 GR
YKL-5-124; 0.03162 µM
  GR value: 0.0651 GR
YKL-5-124; 0.1 µM
  GR value: -0.0212 GR
YKL-5-124; 0.3162 µM
  GR value: -0.0588 GR
YKL-5-124; 1 µM
  GR value: -0.111 GR
YKL-5-124; 3.162 µM
  GR value: -0.172 GR
YKL-5-124; 10 µM
  GR value: -0.563 GR
THZ531; 0.0001 µM
  GR value: 0.925 GR
THZ531; 0.0003162 µM
  GR value: 0.936 GR
THZ531; 0.001 µM
  GR value: 0.948 GR
THZ531; 0.003162 µM
  GR value: 0.994 GR
THZ531; 0.01 µM
  GR value: 1.05 GR
THZ531; 0.03162 µM
  GR value: 0.786 GR
THZ531; 0.1 µM
  GR value: 0.0998 GR
THZ531; 0.3162 µM
  GR value: -0.343 GR
THZ531; 1 µM
  GR value: -0.521 GR
[2]; 0.001 µM
  GR value: 0.876 GR
[2]; 0.003162 µM
  GR value: 0.791 GR
[2]; 0.01 µM
  GR value: 0.605 GR
[2]; 0.03162 µM
  GR value: 0.382 GR
[2]; 0.1 µM
  GR value: 0.268 GR
[2]; 0.3162 µM
  GR value: 0.223 GR
[2]; 1 µM
  GR value: 0.114 GR
[2]; 3.162 µM
  GR value: 0.0465 GR
[2]; 10 µM
  GR value: -0.328 GR
Flavopiridol; 0.0001 µM
  increase in dead-cell fraction: -0.0146
Flavopiridol; 0.0003162 µM
  increase in dead-cell fraction: -0.004
Flavopiridol; 0.001 µM
  increase in dead-cell fraction: 0.0124
Flavopiridol; 0.003162 µM
  increase in dead-cell fraction: 0.0024
Flavopiridol; 0.01 µM
  increase in dead-cell fraction: -0.0083
Flavopiridol; 0.03162 µM
  increase in dead-cell fraction: 0.0121
Flavopiridol; 0.1 µM
  increase in dead-cell fraction: 0.0266
Flavopiridol; 0.3162 µM
  increase in dead-cell fraction: 0.262
Flavopiridol; 1 µM
  increase in dead-cell fraction: 0.602
[3]; 0.001 µM
  increase in dead-cell fraction: 0.0076
[3]; 0.003162 µM
  increase in dead-cell fraction: 0.0065
[3]; 0.01 µM
  increase in dead-cell fraction: 0.0106
[3]; 0.03162 µM
  increase in dead-cell fraction: 0.0354
[3]; 0.1 µM
  increase in dead-cell fraction: 0.043
[3]; 0.3162 µM
  increase in dead-cell fraction: 0.0403
[3]; 1 µM
  increase in dead-cell fraction: 0.0369
[3]; 3.162 µM
  increase in dead-cell fraction: 0.0205
[3]; 10 µM
  increase in dead-cell fraction: 0.085
